Results on three compounds are retold here after patent US20040009956A1, “Inhibition of protein tyrosine phosphatases and SH2 domains by a neutral phosphotyrosine mimetic” (priority 2002, published 2004).

Common to all, as to assay type: biochemical
One assay concerns the target T1, VHR (Homo sapiens, UniProt P51452).
T1 construct: made in house; host or cells: Escherichia coli
The assay can be described thus: PTP inhibition assay (pNPP hydrolysis), dual-specificity phosphatase VHR. On the procedure: (§1) PTP Inhibition Assays. Stock solutions of inhibitors were prepared in dimethyl sulfoxide (DMSO) and their concentrations were calculated from the known inhibitor masses and solvent volumes. A typical reaction (total volume 1 mL) contained 50 mM HEPES (pH 7.4), 1 mM EDTA, 1 mM tris(carboxyethyl)phosphine (TCEP), 50 mM NaCl, 5% (v/v) DMSO, 0.1-0.2 μM PTP, and 0-2000 μM inhibitor. After incubation of the enzyme with the inhibitor for 1 h at room temperature, the reaction was initiated by the addition of 1.0 mM p-nitrophenyl phosphate (pNPP). The reaction progress was monitored at 405 nm on a Perkin-Elmer UV-Vis spectrophotometer. The IC50 values were determined by plotting the remaining activity as a function of inhibitor concentration, and the K1* values were obtained by fitting the data to the Michaelis-Menten equation. To determine the K1 value, the reaction was initiated by addition of enzyme (0.2 μM) into the above reaction mixture, which also contained 1.0 mM pNPP. The reaction was monitored continuously on the UV-Vis spectrophotometer and the initial reaction rates (<15 s) were fitted to the Michaelis-Menten equation.

A further assay concerns the target T2, PTP1B (Homo sapiens, UniProt P18031).
T2 construct: made in house; host or cells: Escherichia coli
T2 sequence (P18031 1-435): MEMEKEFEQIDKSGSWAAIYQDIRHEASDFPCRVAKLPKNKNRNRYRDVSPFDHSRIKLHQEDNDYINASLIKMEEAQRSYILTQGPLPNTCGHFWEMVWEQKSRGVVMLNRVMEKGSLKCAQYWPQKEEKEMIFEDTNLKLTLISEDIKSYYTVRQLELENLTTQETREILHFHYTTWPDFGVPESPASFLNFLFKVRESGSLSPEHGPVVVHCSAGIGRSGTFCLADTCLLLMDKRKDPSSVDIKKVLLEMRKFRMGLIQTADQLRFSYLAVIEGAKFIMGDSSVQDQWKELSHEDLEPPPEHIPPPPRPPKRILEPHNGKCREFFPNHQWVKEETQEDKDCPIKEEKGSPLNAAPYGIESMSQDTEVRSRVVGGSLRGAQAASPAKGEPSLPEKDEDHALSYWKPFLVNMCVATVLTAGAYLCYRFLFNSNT
The assay can be described thus: PTP inhibition assay (pNPP hydrolysis), PTP1B. The method, then: as §1
To determine the rate constant κ6, the enzyme (1.0 μM) was incubated with 50-100 μM inhibitor in 100 μL of the above reaction buffer for 3 h at room temperature. The mixture was rapidly diluted into 900 μL of the same reaction buffer containing 1.0 mM pNPP (without inhibitor). Reactivation of PTP activity was monitored at 405 nm and the progress curves were fit to the equation
where νs is the final steady-state velocity. The rate constant κ5 was calculated using the equation
Inactivation of Inhibitor Cinn-GEE by Cysteamine. Cinn-GEE (1 mM) was incubated with 100 mM cysteamine hydrochloride (which had been neutralized by the addition of 1.0 equivalent of NaOH) in 100 μL of a 97:3 DMSO/H2O mixture for 24 h. The treated inhibitor was then used in inhibition assays as described above. As a control, inhibition assay also performed with the same amount of cysteamine hydrochloride/NaOH solution.

A further assay concerns the target T3, SHP-1 (Homo sapiens, UniProt P29350).
T3 construct: The catalytic domain of SHP-1, SHP-1(ΔSH2), was purified from a recombinant Escherichia coli strain; made in house; host or cells: Escherichia coli
The assay can be described thus: PTP inhibition assay (pNPP hydrolysis), catalytic domain of SHP-1, SHP-1(ΔSH2). The method, then:
as §1

Setting [1] is: 1 h preincubation with inhibitor, 1.0 mM pNPP, pH 7.4.
[2] abbreviates: slow-binding inhibition, 1 h preincubation, 1.0 mM pNPP, read-out: KI* (overall equilibrium inhibition constant).

Molecules are shown by their SMILES. pIC50, pKi: −log10 of the molar value. Like-named read-outs stand apart in the source and are kept apart here.

T3 sequence (P29350 214-595): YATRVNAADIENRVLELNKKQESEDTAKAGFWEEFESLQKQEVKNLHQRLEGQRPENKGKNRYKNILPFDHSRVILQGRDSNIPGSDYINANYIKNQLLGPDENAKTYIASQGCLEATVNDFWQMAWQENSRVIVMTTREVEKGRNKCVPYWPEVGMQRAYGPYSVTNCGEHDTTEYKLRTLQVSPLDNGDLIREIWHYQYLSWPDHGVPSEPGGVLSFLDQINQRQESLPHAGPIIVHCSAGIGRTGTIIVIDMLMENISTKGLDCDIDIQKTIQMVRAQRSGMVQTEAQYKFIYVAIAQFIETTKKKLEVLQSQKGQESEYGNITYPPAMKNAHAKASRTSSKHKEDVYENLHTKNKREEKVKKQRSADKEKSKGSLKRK
T1 sequence (P51452 whole entry, species assumed): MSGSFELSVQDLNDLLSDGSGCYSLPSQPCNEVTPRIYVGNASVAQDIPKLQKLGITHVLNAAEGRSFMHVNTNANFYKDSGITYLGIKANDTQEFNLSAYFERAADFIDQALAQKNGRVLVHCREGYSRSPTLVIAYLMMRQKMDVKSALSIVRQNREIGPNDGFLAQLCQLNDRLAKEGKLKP

For the compound `O=Cc1ccccc1` [Compound 1, Benzaldehyde, reference compound], the “Inhibitory activity (in words)” value at VHR, on PTP1B and on SHP-1 was “least active” in each case.

For `O=CC=Cc1ccc(C(=O)O)cc1` [Compound 3, 4-(3-Oxo-1-propenyl)benzoic acid], the pIC50 is < 2.70 against VHR (setting [1]), 3.01 at PTP1B (setting [1]) and 3.64 against SHP-1 (setting [1]). In addition, the “Inhibition against VHR” value on VHR (up to 2 mM) is “no significant inhibition”.

For the compound `NC(=O)C(CCC(=O)O)NC(=O)C(CCC(=O)O)NC(=O)CNC(=O)c1ccc(C=CC=O)cc1` (stereo not drawn) [Compound 5, N-[4-(3-Oxo-1-propenyl)benzoyl]-Gly-Glu-Glu-NH2], the pKi at VHR (setting [2]) is 3.54; on PTP1B (initial reaction rates (<15 s), reaction initiated by enzyme, read-out: K1, equilibrium inhibition constant for the initial complex E·I), 3.26; at PTP1B (setting [2]), 5.27; on SHP-1 (setting [2]), 4.97. On PTP1B (E·I* complex preformed 3 h, diluted 10-fold into 1.0 mM pNPP), the “κ6, rate for reactivation of PTP1B” value turned out to be 0.56 min⁻¹. The “κ5, rate for conversion of noncovalent E·I complex to covalent complex” value on PTP1B (calculated from K1*=K1κ6/(κ5+κ6)) is 56 min⁻¹. On PTP1B (prior treatment with excess cysteamine), the “Inhibitory activity against PTP1B after treatment of inhibitor with cysteamine” value is on record as “abolished”.
